# Like-named read-outs stand apart in the source and are kept apart here.
# Legend:
# Type in all cases: cell-based
# [1] = target: Mer (phospho-Mer, MERTK-transfected 293A cells) (Homo sapiens (Human), UniProt Q12866); assay: Mer autophosphorylation ELISA in transient transfected 293A cells (Example H); conditions: cellular activity
# Procedure, shortened: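 293A cells transiently transfected with human MERTK were treated 1 h in serum-free medium with an 8-point compound dilution (0.3% DMSO final). Lysates were assayed by phospho-Mer sandwich ELISA against a phospho-Mer standard; IC50 came from a 4-parameter logistic fit, normalised to DMSO (100%) and reference-inhibitor (0%) controls.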
# [2] = target: Met (phospho-Met, HGF-stimulated PC-3 prostate cancer cells) (Homo sapiens (Human), UniProt P08581); assay: Met autophosphorylation ELISA in PC-3 cells (Example F); conditions: cellular activity, read-out: c-Met IC50
# Sequence of Met (phospho-Met, HGF-stimulated PC-3 prostate cancer cells) (P08581 25-1390): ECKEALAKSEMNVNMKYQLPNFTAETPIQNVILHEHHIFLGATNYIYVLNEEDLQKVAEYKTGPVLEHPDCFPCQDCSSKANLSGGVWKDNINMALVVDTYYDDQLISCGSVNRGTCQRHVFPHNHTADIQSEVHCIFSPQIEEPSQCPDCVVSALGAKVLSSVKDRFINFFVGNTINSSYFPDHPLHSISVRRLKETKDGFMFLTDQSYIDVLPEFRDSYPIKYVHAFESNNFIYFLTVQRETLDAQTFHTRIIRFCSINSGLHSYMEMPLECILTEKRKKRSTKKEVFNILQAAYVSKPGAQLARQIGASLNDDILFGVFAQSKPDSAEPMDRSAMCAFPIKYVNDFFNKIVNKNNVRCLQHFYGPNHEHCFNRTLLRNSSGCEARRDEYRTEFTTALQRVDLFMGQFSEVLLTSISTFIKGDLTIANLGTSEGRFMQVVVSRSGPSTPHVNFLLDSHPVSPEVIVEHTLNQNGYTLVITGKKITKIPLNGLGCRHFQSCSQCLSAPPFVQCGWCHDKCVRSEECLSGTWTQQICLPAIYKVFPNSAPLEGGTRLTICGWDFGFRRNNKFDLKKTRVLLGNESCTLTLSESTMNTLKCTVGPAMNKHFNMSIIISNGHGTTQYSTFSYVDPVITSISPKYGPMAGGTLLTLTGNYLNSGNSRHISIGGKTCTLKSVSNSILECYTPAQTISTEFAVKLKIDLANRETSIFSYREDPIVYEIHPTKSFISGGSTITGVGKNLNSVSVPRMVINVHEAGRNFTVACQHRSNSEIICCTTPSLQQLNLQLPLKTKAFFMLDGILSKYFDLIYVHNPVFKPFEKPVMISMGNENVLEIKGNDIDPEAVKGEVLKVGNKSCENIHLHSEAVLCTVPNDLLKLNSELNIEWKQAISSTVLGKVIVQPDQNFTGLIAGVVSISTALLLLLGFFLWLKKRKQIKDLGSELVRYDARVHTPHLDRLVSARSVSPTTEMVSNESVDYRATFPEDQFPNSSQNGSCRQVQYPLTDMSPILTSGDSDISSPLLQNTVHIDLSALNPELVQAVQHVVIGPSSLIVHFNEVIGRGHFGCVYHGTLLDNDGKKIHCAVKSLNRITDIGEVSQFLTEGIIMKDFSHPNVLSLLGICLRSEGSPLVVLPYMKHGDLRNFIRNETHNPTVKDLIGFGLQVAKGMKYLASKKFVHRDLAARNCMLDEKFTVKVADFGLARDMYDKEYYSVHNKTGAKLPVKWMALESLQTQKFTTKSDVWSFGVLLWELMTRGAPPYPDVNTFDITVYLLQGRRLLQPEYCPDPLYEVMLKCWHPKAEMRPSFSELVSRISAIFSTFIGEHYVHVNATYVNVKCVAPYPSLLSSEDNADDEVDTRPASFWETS
# Procedure, shortened: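 Sandwich ELISA for phospho-Met (panTyr) in PC-3 lysates. Cells starved 3 h serum-free, compound 1 h (8-pt curve, 0.3% DMSO), HGF 100 ng/mL 10 min. 100% = HGF + DMSO; 0% = HGF + reference inhibitor. IC50 by 4-parameter fit.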
# [3] = target: AXL (phospho-AXL, Gas6-stimulated A-172 glioblastoma cells) (Homo sapiens (Human), UniProt P30530); assay: AXL autophosphorylation ELISA in A-172 cells (Example E); conditions: cellular activity, read-out: Axl IC50
# Sequence of AXL (phospho-AXL, Gas6-stimulated A-172 glioblastoma cells) (P30530 26-894): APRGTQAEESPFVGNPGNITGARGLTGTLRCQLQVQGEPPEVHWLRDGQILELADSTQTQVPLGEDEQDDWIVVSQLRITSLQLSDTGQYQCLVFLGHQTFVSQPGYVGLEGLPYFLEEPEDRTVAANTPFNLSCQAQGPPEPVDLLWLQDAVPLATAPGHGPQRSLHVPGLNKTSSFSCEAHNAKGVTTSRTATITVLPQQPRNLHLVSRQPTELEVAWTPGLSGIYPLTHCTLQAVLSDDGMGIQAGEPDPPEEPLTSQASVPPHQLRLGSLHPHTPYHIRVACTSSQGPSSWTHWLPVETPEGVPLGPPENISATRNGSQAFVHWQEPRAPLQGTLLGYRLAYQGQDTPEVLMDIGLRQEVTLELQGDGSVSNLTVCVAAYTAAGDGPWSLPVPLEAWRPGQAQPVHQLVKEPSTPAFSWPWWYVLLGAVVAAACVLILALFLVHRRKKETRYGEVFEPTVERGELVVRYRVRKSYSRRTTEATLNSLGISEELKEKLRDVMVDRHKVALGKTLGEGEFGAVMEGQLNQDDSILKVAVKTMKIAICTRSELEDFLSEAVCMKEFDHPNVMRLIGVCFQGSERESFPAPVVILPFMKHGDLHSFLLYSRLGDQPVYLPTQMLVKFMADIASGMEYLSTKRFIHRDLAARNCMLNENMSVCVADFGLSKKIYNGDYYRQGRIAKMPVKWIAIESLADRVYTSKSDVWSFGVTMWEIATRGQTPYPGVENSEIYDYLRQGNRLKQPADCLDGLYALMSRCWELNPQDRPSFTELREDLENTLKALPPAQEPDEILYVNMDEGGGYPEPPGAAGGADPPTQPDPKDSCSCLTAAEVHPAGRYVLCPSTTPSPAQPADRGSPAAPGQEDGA
# Description: A-172 cells were incubated at 37° C., 5% CO2 for 24 h and then starved for 24 h in serum-free medium. Test compounds were serially diluted to produce an 8-point dose curve in fresh serum-free medium to a final concentration of 0.3% DMSO (vehicle) and added to the cells and incubated for 1 h. […] Lysates were collected and 100 μL/well added into the human phospho-AXL DuoSet IC ELISA (R&D Systems #DYC2228-2). […] Positive control wells (100% activity) contained Gas6-stimulated, DMSO-treated cell lysates. Negative control wells (0% activity) contained Gas6-stimulated, reference inhibitor-treated cell lysates. IC50 values were calculated by nonlinear regression analysis using a 4-parameter logistic curve fit in ActivityBase XE (IDBS).
# [4] = Mer autophosphorylation ELISA in transient transfected 293A cells
# [5] = Met autophosphorylation ELISA in PC-3 cells
# [6] = AXL autophosphorylation ELISA in A-172 cells
# Sequence of Mer (phospho-Mer, MERTK-transfected 293A cells) (Q12866 21-999): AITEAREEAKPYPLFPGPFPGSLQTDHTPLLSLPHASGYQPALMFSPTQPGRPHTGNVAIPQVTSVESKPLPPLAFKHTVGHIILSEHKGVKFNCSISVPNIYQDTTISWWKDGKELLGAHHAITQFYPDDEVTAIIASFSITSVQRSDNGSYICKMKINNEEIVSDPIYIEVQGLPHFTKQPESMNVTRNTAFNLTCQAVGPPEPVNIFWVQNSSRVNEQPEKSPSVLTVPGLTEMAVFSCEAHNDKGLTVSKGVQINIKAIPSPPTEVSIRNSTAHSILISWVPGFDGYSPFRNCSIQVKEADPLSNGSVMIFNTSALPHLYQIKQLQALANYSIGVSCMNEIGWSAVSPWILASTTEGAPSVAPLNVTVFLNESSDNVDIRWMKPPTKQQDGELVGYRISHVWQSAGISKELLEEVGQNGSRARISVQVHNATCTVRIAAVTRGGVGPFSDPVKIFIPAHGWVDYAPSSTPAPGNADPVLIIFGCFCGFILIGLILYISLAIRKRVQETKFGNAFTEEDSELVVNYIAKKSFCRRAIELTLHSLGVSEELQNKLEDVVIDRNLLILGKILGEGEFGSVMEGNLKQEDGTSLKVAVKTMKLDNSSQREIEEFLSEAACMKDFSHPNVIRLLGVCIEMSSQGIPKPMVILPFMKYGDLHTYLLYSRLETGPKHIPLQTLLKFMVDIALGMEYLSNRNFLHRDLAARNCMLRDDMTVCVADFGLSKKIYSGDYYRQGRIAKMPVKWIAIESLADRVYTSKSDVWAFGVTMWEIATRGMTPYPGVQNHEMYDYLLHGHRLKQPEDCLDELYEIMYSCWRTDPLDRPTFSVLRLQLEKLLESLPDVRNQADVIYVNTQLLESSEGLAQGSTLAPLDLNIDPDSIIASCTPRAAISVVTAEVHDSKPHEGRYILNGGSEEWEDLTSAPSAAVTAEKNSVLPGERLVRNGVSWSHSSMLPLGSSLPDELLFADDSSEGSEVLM
"IC50 [1, 4] [nM]","IC50 [2, 5] [nM]","IC50 [3, 6] [nM]",IC50 ([1]; transfected 293A cells) [nM],IC50 ([2]; PC-3 cells) [nM],IC50 ([3]; A-172 cells) [nM],Structure (SMILES)
< 100,< 100,100 to 300,,,,"COCc1nc(C)cc(O)c1C(=O)Nc1ccc(Oc2ccnc3cc(OC)c(OC)nc23)c(F)c1 [Compound 492, N-[4-[(6,7-dimethoxy-1,5-naphthyridin-4-yl)oxy]-3-fluorophenyl]-4-hydroxy-2-(methoxymethyl)-6-methylpyridine-3-carboxamide]"
,,,< 100,< 100,< 100,"COc1cc(F)ccc1-c1cn(CCF)c(C)c(C(=O)Nc2ccc(Oc3ccnc4cc(OC)c(OC)nc34)c(F)c2)c1=O [Compound 805, N-[4-[(6,7-dimethoxy-1,5-naphthyridin-4-yl)oxy]-3-fluorophenyl]-1-(2-fluoroethyl)-5-(4-fluoro-2-methoxyphenyl)-2-methyl-4-oxopyridine-3-carboxamide]"
< 100,100 to 300,100 to 300,,,,"COc1cc2nccc(Oc3ccc(NC(=O)c4nnc(C)c(-c5ccc(F)cc5)c4SC)cc3F)c2nc1OC [Compound 602, N-[4-[(6,7-Dimethoxy-1,5-naphthyridin-4-yl)oxy]-3-fluorophenyl]-5-(4-fluorophenyl)-6-methyl-4-methylsulfanylpyridazine-3-carboxamide]"
< 100,< 100,< 100,,,,"COc1cc2nccc(Oc3ccc(NC(=O)c4c(C)nc(C)c(-c5ccc(F)cc5F)c4O)cc3F)c2nc1OC [Compound 209, 5-(2,4-Difluorophenyl)-N-[4-[(6,7-dimethoxy-1,5-naphthyridin-4-yl)oxy]-3-fluorophenyl]-4-hydroxy-2,6-dimethylpyridine-3-carboxamide]"

# The next lines start with the molecule.
Structure (SMILES),"IC50 [1, 4] [nM]","IC50 [2, 5] [nM]","IC50 [3, 6] [nM]",IC50 ([1]; transfected 293A cells) [nM],IC50 ([2]; PC-3 cells) [nM],IC50 ([3]; A-172 cells) [nM]
"COCc1nc(C)c(-c2ccc(F)cc2F)c(O)c1C(=O)Nc1ccc(Oc2ccnc3cc(OC)cnc23)c(F)c1 [Compound 211, 5-(2,4-Difluorophenyl)-N-[3-fluoro-4-[(7-methoxy-1,5-naphthyridin-4-yl)oxy]phenyl]-4-hydroxy-2-(methoxymethyl)-6-methylpyridine-3-carboxamide]",< 100,< 100,< 100,,,
"COc1nc2c(Oc3ccc(NC(=O)c4c(C)nc(C)c(-c5ccc(F)cc5C)c4O)cc3F)ccnc2cc1N [Compound 804, N-[4-[(7-amino-6-methoxy-1,5-naphthyridin-4-yl)oxy]-3-fluorophenyl]-5-(4-fluoro-2-methylphenyl)-4-hydroxy-2,6-dimethylpyridine-3-carboxamide]",,,,< 100,< 100,< 100
"COc1cnc2c(Oc3ccc(NC(=O)c4cn(CCF)c(C)c(-c5ccc(F)cc5)c4=O)cc3F)ccnc2c1 [Compound 624, 1-(2-Fluoroethyl)-N-[3-fluoro-4-[(7-methoxy-1,5-naphthyridin-4-yl)oxy]phenyl]-5-(4-fluorophenyl)-6-methyl-4-oxopyridine-3-carboxamide]",< 100,< 100,< 100,,,
"COc1cc2nccc(Oc3ccc(NC(=O)c4cc(F)c(C)n(-c5ccc(F)cc5)c4=O)cc3)c2nc1OC [Compound 338, N-[4-[(6,7-dimethoxy-1,5-naphthyridin-4-yl)oxy]phenyl]-5-fluoro-1-(4-fluorophenyl)-6-methyl-2-oxopyridine-3-carboxamide]",< 100,< 100,< 100,,,
"COc1cnc2c(Oc3ccc(NC(=O)c4c(C)nc(C)c(-c5ccc(F)cc5F)c4O)cc3F)ccnc2c1 [Compound 210, 5-(2,4-Difluorophenyl)-N-[3-fluoro-4-[(7-methoxy-1,5-naphthyridin-4-yl)oxy]phenyl]-4-hydroxy-2,6-dimethylpyridine-3-carboxamide]",< 100,< 100,< 100,,,
"COc1cnc2c(Oc3ccc(NC(=O)c4cn(CCF)c(C)c(-c5ccc(F)cc5C)c4=O)cc3)ccnc2c1 [Compound 798, 1-(2-fluoroethyl)-5-(4-fluoro-2-methylphenyl)-N-[4-[(7-methoxy-1,5-naphthyridin-4-yl)oxy]phenyl]-6-methyl-4-oxopyridine-3-carboxamide]",< 100,< 100,< 100,,,
